The values that follow come from paper PMC11561238, “Discovery and binding mode of small molecule inhibitors of the apo form of human TDO2” (Scientific Reports, 2024).

For one test, the target named is T1, human TDO2 (Homo sapiens, UniProt P48775).
T1 construct: SW48 cells, which express a high level of endogenous TDO2; endogenous in cells; host or cells: SW48 cells (ATCC CCL-231)
The test is described as follows: TDO2 cellular activity assay (SW48 cells, NFK + KYN in supernatant by LCMS). Particulars: 24 h, 200 µM Trp. It counts as cell-based. How it is done: (§1) The inhibitor compound 1 (Cpd-1) (IUPAC name ethyl 9-(3-(2-propylphenyl)-1-(1-phenylethyl)ureido)-2-methoxy-4-oxo-6,7,8,9-tetrahydro-4H-pyrido[1,2-a]pyrimidine-3-carboxylate) was identified as a hit in a high throughput screening campaign of a diverse set of 244,625 compounds in a human TDO2 cellular assay utilizing SW48 cells, which express a high level of endogenous TDO2. TDO2 activity was assessed by measuring the accumulation of the TDO2 product NFK and downstream product KYN in the supernatant. The potent inhibitor compound 2 (Cpd-2) (IUPAC name ethyl 9-(3-(2-isopropylphenyl)-1-((S)-1-phenylethyl)ureido)-2-methoxy-4-oxo-6,7,8,9-tetrahydro-4H-pyrido[1,2-a]pyrimidine-3-carboxylate) was identified during initial structure activity relationship studies of Cpd-1 analogs.
SW48 cells (source: American Type Culture Collection (ATCC), CCL-231) were used to measure the TDO2 inhibitory activity of compounds and were routinely maintained in DMEM high glucose/GlutaMAX^TM/pyruvate (Gibco, 10569010) 90% (v/v), FCS (Gibco, 10500, heat inactivated)10% (v/v), Penicillin/streptomycin (Gibco, 15140) 1% (v/v). […]
The 384 deep well plate containing 3 µl supernatant and 25 µl H2O per well were further processed for LCMS. […] NFK and kynurenine were quantified by LCMS, normalized to the internal standard Trp-(indole-d5) and the sum was calculated. […]

For another test, the system named is SW48 cells. The test is described as follows: SW48 cell viability assay (CellTiter-Glo). The test is classed as cell-based. The following applies: Homo sapiens. How it is done: as §1
As inhibition of NFK and KYN production can simply be an effect of cytotoxicity, a viability assay (CellTiter-Glo 2.0 Luminescent Cell Viability Assay, Promega Catalog # G9243) was performed in parallel. CellTiter-Glo reagent was added (25 µl/well) to SW48 cell plates, incubated for 15 min at room temperature in the dark and luminescence was measured with the EnVision Multilabel Reader from Perkin Elmer according to the manufacturer’s instructions. […] For each compound concentration the percentage of activity compared to 0% and 100% effect was calculated as average ± STDEV (each concentration measured in duplicate). […]
Background: In ATP-based viability assays light output follows the ATP content of the culture.

The target in test [1] is T2, recombinant human TDO2 (holo-TDO2) (Homo sapiens, UniProt P48775).
T2 construct: a construct encoding amino acids 19–406 of human TDO2 with an N-terminal six histidine tag; PreScission protease cleavage site (linker) (N); made in house; host or cells: E. coli BL21(DE3)
The test is described as follows: Holo-TDO2 enzymatic assay. It counts as biochemical. How it is done: The IC50 curve is shown in supplementary Fig. S1 online. We speculate that the observed IC50 shift may be due to the kinetics of heme dissociation from holo-TDO2 and/or the absence of alternative heme binding proteins in the assay system. The structurally similar Cpd-2 was not tested in the enzymatic assay.
For the enzymatic assay, recombinant human TDO2 comprising amino acids […] with a N-terminal hexahistidine tag, expressed in Escherichia coli and purified to homogeneity, was incubated in assay buffer consisting of 75 mM phosphate buffer at pH 7.0 supplemented with 100 µM ascorbic acid, 50 U/ml catalase, 0.01% bovine serum albumin (BSA), and 0.01% Tween 20 (protocol modified from[45]).

The term IC50 denotes the concentration that gives 50% inhibition.

T2 sequence (P48775 19-406): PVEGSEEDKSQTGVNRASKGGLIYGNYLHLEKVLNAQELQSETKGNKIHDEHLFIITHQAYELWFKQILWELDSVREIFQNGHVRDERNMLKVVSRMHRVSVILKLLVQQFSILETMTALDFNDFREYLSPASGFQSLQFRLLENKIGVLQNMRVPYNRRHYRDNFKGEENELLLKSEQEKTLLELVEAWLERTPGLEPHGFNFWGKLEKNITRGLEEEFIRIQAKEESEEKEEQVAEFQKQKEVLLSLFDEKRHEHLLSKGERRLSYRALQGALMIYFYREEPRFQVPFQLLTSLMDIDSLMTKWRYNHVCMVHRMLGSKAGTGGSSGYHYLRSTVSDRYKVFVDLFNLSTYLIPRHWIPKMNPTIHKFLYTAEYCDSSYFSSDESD
T1 sequence (P48775 whole entry): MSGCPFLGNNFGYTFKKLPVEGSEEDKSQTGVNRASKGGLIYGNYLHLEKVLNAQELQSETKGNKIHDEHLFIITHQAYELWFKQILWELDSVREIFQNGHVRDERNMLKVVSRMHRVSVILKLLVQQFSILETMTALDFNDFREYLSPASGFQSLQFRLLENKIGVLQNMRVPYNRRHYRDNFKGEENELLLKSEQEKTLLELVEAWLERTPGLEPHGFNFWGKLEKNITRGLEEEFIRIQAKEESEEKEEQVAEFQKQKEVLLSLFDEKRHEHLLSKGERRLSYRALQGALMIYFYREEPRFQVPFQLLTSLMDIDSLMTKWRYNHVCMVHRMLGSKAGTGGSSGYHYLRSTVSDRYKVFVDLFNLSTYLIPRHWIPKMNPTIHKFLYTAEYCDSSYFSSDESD

For the compound `CCOC(=O)c1c(OC)nc2n(c1=O)CCCC2N(C(=O)Nc1ccccc1C(C)C)[C@@H](C)c1ccccc1` (mixture of isomers) [Cpd-2, ethyl 9-(3-(2-isopropylphenyl)-1-((S)-1-phenylethyl)ureido)-2-methoxy-4-oxo-6,7,8,9-tetrahydro-4H-pyrido[1,2-a]pyrimidine-3-carboxylate], the IC50 at human TDO2 is 0.0148 µM; with SW48 cells, > 10 µM.
For the compound `CCCc1ccccc1NC(=O)N(C(C)c1ccccc1)C1CCCn2c1nc(OC)c(C(=O)OCC)c2=O` (stereo not drawn) [Cpd-1, ethyl 9-(3-(2-propylphenyl)-1-(1-phenylethyl)ureido)-2-methoxy-4-oxo-6,7,8,9-tetrahydro-4H-pyrido[1,2-a]pyrimidine-3-carboxylate], the IC50 on human TDO2 is 0.327 µM; in test [1] (30 min assay at room temperature after 30 min pre-incubation with holo-TDO2, read-out: enzymatic assay IC50 (holo form of TDO2)), 17.4 µM; with SW48 cells, > 10 µM. For the same compound, the “fold less potent in enzymatic assay than in the cellular assay” value in test [1] (enzymatic IC50 vs TDO2 cellular IC50) was determined as 53 fold.
